Experimental data as given in patent publication US8192962B2, “Processes for detecting toxic substances” (Daikin Industries, Ltd., priority 2001, dated 2012).

Test system: Energy system protein genes
Assay: DNA chip mRNA expression in yeast, energy system protein genes (Table 4)
Type: cell-based, Saccharomyces cerevisiae S288C
How it was run: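 First, S288C yeast grown in YPD at 25° C. are dosed in log phase with one toxicant (growth-inhibiting, not lethal) for 2 h. Next, total RNA is extracted and poly(A) mRNA isolated and reverse-transcribed with Cy3/Cy5-dUTP. Finally, whole-genome chip fluorescence is read relative to unexposed cells.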

## S=C([S-])NCCNC(=S)[S-].[Zn+2] [(11), zinc N,N′-ethylenebis(dithiocarbamate)]
Yeast gene YJL166W, cells incubated two hours with the chemical substance
  The level of expressed mRNA in the presence of chemical substance/The level of expressed mRNA in the absence of chemical substance: 1.4
Yeast gene YJL216C, cells incubated two hours with the chemical substance
  The level of expressed mRNA in the presence of chemical substance/The level of expressed mRNA in the absence of chemical substance: 1.1
Yeast gene YJR009C
  The level of expressed mRNA in the presence of chemical substance/The level of expressed mRNA in the absence of chemical substance: 1.1
Yeast gene YJR048W
  The level of expressed mRNA in the presence of chemical substance/The level of expressed mRNA in the absence of chemical substance: 1.0
Yeast gene YJR121W, cells incubated two hours with the chemical substance
  The level of expressed mRNA in the presence of chemical substance/The level of expressed mRNA in the absence of chemical substance: 0.9
Yeast gene YJR155W
  The level of expressed mRNA in the presence of chemical substance/The level of expressed mRNA in the absence of chemical substance: 15.4
Yeast gene YKL016C, cells incubated two hours with the chemical substance
  The level of expressed mRNA in the presence of chemical substance/The level of expressed mRNA in the absence of chemical substance: 1.3
Yeast gene YKL060C, cells incubated two hours with the chemical substance
  The level of expressed mRNA in the presence of chemical substance/The level of expressed mRNA in the absence of chemical substance: 2.1
Yeast gene YKL141W, cells incubated two hours with the chemical substance
  The level of expressed mRNA in the presence of chemical substance/The level of expressed mRNA in the absence of chemical substance: 1.2
Yeast gene YKL148C, cells incubated two hours with the chemical substance
  The level of expressed mRNA in the presence of chemical substance/The level of expressed mRNA in the absence of chemical substance: 1.5
Yeast gene YKR009C, cells incubated two hours with the chemical substance
  The level of expressed mRNA in the presence of chemical substance/The level of expressed mRNA in the absence of chemical substance: 1.2
Yeast gene YKR058W, cells incubated two hours with the chemical substance, 25° C., YPD medium
  The level of expressed mRNA in the presence of chemical substance/The level of expressed mRNA in the absence of chemical substance: 1.5
Yeast gene YKR097W
  The level of expressed mRNA in the presence of chemical substance/The level of expressed mRNA in the absence of chemical substance: 0.8
Yeast gene YLL041C, cells incubated two hours with the chemical substance
  The level of expressed mRNA in the presence of chemical substance/The level of expressed mRNA in the absence of chemical substance: 1.3
Yeast gene YLR038C, cells incubated two hours with the chemical substance
  The level of expressed mRNA in the presence of chemical substance/The level of expressed mRNA in the absence of chemical substance: 1.4
Yeast gene YLR044C, cells incubated two hours with the chemical substance
  The level of expressed mRNA in the presence of chemical substance/The level of expressed mRNA in the absence of chemical substance: 1.1
Yeast gene YLR134W, cells incubated two hours with the chemical substance
  The level of expressed mRNA in the presence of chemical substance/The level of expressed mRNA in the absence of chemical substance: 1.1
Yeast gene YLR258W, cells incubated two hours with the chemical substance
  The level of expressed mRNA in the presence of chemical substance/The level of expressed mRNA in the absence of chemical substance: 1.2
Yeast gene YLR284C, cells incubated two hours with the chemical substance
  The level of expressed mRNA in the presence of chemical substance/The level of expressed mRNA in the absence of chemical substance: 1.5
Yeast gene YLR295C, cells incubated two hours with the chemical substance, 25° C., YPD medium
  The level of expressed mRNA in the presence of chemical substance/The level of expressed mRNA in the absence of chemical substance: 1.3
Yeast gene YLR304C, cells incubated two hours with the chemical substance
  The level of expressed mRNA in the presence of chemical substance/The level of expressed mRNA in the absence of chemical substance: 1.6
Yeast gene YLR345W
  The level of expressed mRNA in the presence of chemical substance/The level of expressed mRNA in the absence of chemical substance: 2.5
Yeast gene YLR354C, cells incubated two hours with the chemical substance
  The level of expressed mRNA in the presence of chemical substance/The level of expressed mRNA in the absence of chemical substance: 1.7
Yeast gene YLR377C, cells incubated two hours with the chemical substance
  The level of expressed mRNA in the presence of chemical substance/The level of expressed mRNA in the absence of chemical substance: 0.6
Yeast gene YLR395C, cells incubated two hours with the chemical substance
  The level of expressed mRNA in the presence of chemical substance/The level of expressed mRNA in the absence of chemical substance: 1.5
Yeast gene YML087C
  The level of expressed mRNA in the presence of chemical substance/The level of expressed mRNA in the absence of chemical substance: 1.6
Yeast gene YML120C, cells incubated two hours with the chemical substance
  The level of expressed mRNA in the presence of chemical substance/The level of expressed mRNA in the absence of chemical substance: 1.3
Yeast gene YML129C, cells incubated two hours with the chemical substance
  The level of expressed mRNA in the presence of chemical substance/The level of expressed mRNA in the absence of chemical substance: 1.2
Yeast gene YMR073C, cells incubated two hours with the chemical substance
  The level of expressed mRNA in the presence of chemical substance/The level of expressed mRNA in the absence of chemical substance: 0.9
Yeast gene YMR118C
  The level of expressed mRNA in the presence of chemical substance/The level of expressed mRNA in the absence of chemical substance: 0.7
Yeast gene YMR205C, cells incubated two hours with the chemical substance
  The level of expressed mRNA in the presence of chemical substance/The level of expressed mRNA in the absence of chemical substance: 1.0
Yeast gene YMR261C, cells incubated two hours with the chemical substance
  The level of expressed mRNA in the presence of chemical substance/The level of expressed mRNA in the absence of chemical substance: 0.8
Yeast gene YMR267W, cells incubated two hours with the chemical substance, 25° C., YPD medium
  The level of expressed mRNA in the presence of chemical substance/The level of expressed mRNA in the absence of chemical substance: 1.0
Yeast gene YMR323W, cells incubated two hours with the chemical substance
  The level of expressed mRNA in the presence of chemical substance/The level of expressed mRNA in the absence of chemical substance: 2.5
Yeast gene YNL071W
  The level of expressed mRNA in the presence of chemical substance/The level of expressed mRNA in the absence of chemical substance: 1.6
Yeast gene YNL202W, cells incubated two hours with the chemical substance
  The level of expressed mRNA in the presence of chemical substance/The level of expressed mRNA in the absence of chemical substance: 1.2
Yeast gene YNL241C
  The level of expressed mRNA in the presence of chemical substance/The level of expressed mRNA in the absence of chemical substance: 3.0
Yeast gene YNL331C
  The level of expressed mRNA in the presence of chemical substance/The level of expressed mRNA in the absence of chemical substance: 21.8
Yeast gene YOL086C, cells incubated two hours with the chemical substance
  The level of expressed mRNA in the presence of chemical substance/The level of expressed mRNA in the absence of chemical substance: 2.6
Yeast gene YOL165C
  The level of expressed mRNA in the presence of chemical substance/The level of expressed mRNA in the absence of chemical substance: 17.6
Yeast gene YOR142W, cells incubated two hours with the chemical substance
  The level of expressed mRNA in the presence of chemical substance/The level of expressed mRNA in the absence of chemical substance: 1.5
Yeast gene YOR178C, cells incubated two hours with the chemical substance
  The level of expressed mRNA in the presence of chemical substance/The level of expressed mRNA in the absence of chemical substance: 4.1
Yeast gene YOR388C, cells incubated two hours with the chemical substance
  The level of expressed mRNA in the presence of chemical substance/The level of expressed mRNA in the absence of chemical substance: 1.3
Yeast gene YPL031C, cells incubated two hours with the chemical substance
  The level of expressed mRNA in the presence of chemical substance/The level of expressed mRNA in the absence of chemical substance: 1.4
Yeast gene YPL061W, cells incubated two hours with the chemical substance
  The level of expressed mRNA in the presence of chemical substance/The level of expressed mRNA in the absence of chemical substance: 1.1
Yeast gene YPL088W
  The level of expressed mRNA in the presence of chemical substance/The level of expressed mRNA in the absence of chemical substance: 1.1
Yeast gene YPL171C
  The level of expressed mRNA in the presence of chemical substance/The level of expressed mRNA in the absence of chemical substance: 37.0
Yeast gene YPL240C
  The level of expressed mRNA in the presence of chemical substance/The level of expressed mRNA in the absence of chemical substance: 1.0
Yeast gene YPL262W, cells incubated two hours with the chemical substance
  The level of expressed mRNA in the presence of chemical substance/The level of expressed mRNA in the absence of chemical substance: 1.4
Yeast gene YPL275W, cells incubated two hours with the chemical substance
  The level of expressed mRNA in the presence of chemical substance/The level of expressed mRNA in the absence of chemical substance: 0.9
Yeast gene YPL276W, cells incubated two hours with the chemical substance
  The level of expressed mRNA in the presence of chemical substance/The level of expressed mRNA in the absence of chemical substance: −0.4
Yeast gene YPR048W, cells incubated two hours with the chemical substance
  The level of expressed mRNA in the presence of chemical substance/The level of expressed mRNA in the absence of chemical substance: 1.0
Yeast gene YPR184W, cells incubated two hours with the chemical substance
  The level of expressed mRNA in the presence of chemical substance/The level of expressed mRNA in the absence of chemical substance: 3.6
